Data published in patent US5288905A, “Glycyl urea derivatives as anti-convulsants” (G. D. Searle & Co., priority 1991, dated 1994).

Columns and labels:
[1] = tested on: mice; set-up: species or system male Swiss albino mice; settings: mouse, in vivo, po
Experimental: (§1) Treatment of a mammal afflicted by or susceptible to certain CNS disorders is accomplished by administration of a therapeutically-effective amount of a compound of Formula I. In particular, Compounds #1-11 of Table II were evaluated by in vitro and in vivo animal model assays to determine the pharmacological properties of such compounds and their likely suitability for use as therapeutic drugs in humans. These biological assays, as described below, consisted of prevention of induced convulsions in mice, determination of acute toxicity in mice and animal behavior assays. Except as otherwise specified, the animals used in the in vivo tests were male Swiss albino mice weight 22 to 33 g [CDl, Charles River, France], housed in groups of 10 on a 12-hour dark-light cycle for at least one week before use and fasted overnight prior to testing.
Behavioral effects of compounds of the invention on animals were determined by observations taken at 5 to 6 hours and at 24 hours after administration of compounds in the acute toxicity studies. Determinations were made based on a method derived from that of S. Irwin [See R. A. Turner, Screening Methods in Pharmacology, Chapter 3, pages 22-34, Academic Press, N.Y. (1965)]. If an anomaly were noted, the observation was extended and smaller doses were tested. Possible types of behavior to be observed are as follows: analgesia (AAG), convulsions (CON), depression (DEP), exophthalmia (EOP), excitation (EXC), hyperalgesia (HAG), hypothermia (ATH), hypotonia (ATN), piloerection (PIE), palpebral ptosis (PTO), reduction of the pinna reflux (RPI), reduction of the rearing reflex (RRE), reduction of the flexion reflex (RRF), sedation (SED), tremors (TRE), cyanosis (CYA), diarrhea (DIA), increase of the pinna reflex (HPI), increase of the flexion reflex (HRF), dyspnea (DYS), toxic (TOX), zero ("0") means no effect. Behaviors observed are reported in Table V by numbers which represent the dose at which the behavior is observed.

[2] = tested on: mice; assay: Prevention of bicuculline (BIC)-induced convulsions in mice; format: in vivo, male Swiss albino mice; settings: Mus musculus, po; 30 mg/kg orally; bicuculline 0.6 mg/kg intravenously; four groups of five animals; read-out: Percentage of Mice Protected from Bicuculline
Experimental: as §1
(§2) Compounds of Formula I were evaluated as inhibitors of convulsions and death induced by different convulsant agents: 3-mercaptopropionic acid (3-MPA; 120 mg/kg subcutaneously), bicuculline (BIC, 0.6 mg/kg intravenously), pentylenetetrazole (PTZ, 55 mg/kg intravenously) and supramaximal electroconvulsive shocks (ECS evoked by a current intensity of 48 mA, 50 Hz. 0.2 sec duration, 10 msec square pulse, corneal electrodes) [W. van Dorsser, D. Barris, A. Cordi and J. Roba, Arch. Int. Pharmacodyn., 266, 239-249 (1983)]. The compounds of the invention were administered orally at a dosage of either 100 mg/kg or 30 mg/kg in a volume of 10 ml/kg each to 5 mice. Tonic convulsions and the number of dead mice were noted. Results are given in Table III as a score which represents the total number of mice protected from convulsions induced by 3-mercaptopropionic acid at dose of 100 mg/kg for two groups of five animals, or the percentage of mice protected from convulsions induced by bicuculline at a dose of 30 mg/kg for four groups of five animals.

[3] = tested on: mice; assay: Prevention of 3-mercaptopropionic acid (3-MPA)-induced convulsions in mice; format: in vivo, male Swiss albino mice; settings: for Number of Mice Protected From Convulsions Induced by 3-MPA at 100 mg/kg, 30 min interval / Number of Mice Protected From Convulsions Induced by 3-MPA at 100 mg/kg, 2 hr interval: 100 mg/kg orally, 3-MPA 120 mg/kg subcutaneously, two groups of five animals; for Number of Mice Protected From Convulsions Induced by 3-MPA at 100 mg/kg, 30 min interval: 30 min before convulsions induced; for Number of Mice Protected From Convulsions Induced by 3-MPA at 100 mg/kg, 2 hr interval: 2 hr before convulsions induced
Experimental: as §1, §2
(§3) Based upon data generated from the previously-described anti-convulsant experiments, ED50 values were calculated at which Compound #6 inhibits convulsions induced by the convulsant agents listed in Table IV.

[4] = Acute toxicity in mice after oral administration; set-up: species or system male Swiss albino mice; settings: mouse, in vivo, mortality over 15 days
Experimental: as §1
The acute toxicity of compounds of the invention was determined after oral administration of the test compound to mice. Compound to be tested was suspended in a 1% tragacanth gum mucilage, and was administered by means of an intragastric probe to a group of three male mice. Doses used in the test were determined by observing toxic effects on the mice, which doses varied from 3,000 mg/kg down to about 3 mg/kg. The mortality was recorded over a period of 15 days. The LD50 results reported in Table V were calculated according to published methods [Lichtfield and Wilcoxon, J. Pharmacol. Exp. Ther., 96, 99 (1949)] and expressed in mg of test compound per kilogram of mouse body weight.

[5] = tested on: mice; assay: 5HTP-induced head twitch in mice; format: in vivo, male Swiss albino mice; settings: Mus musculus, po, 2 hours before 5HTP challenge (10 mg/kg i.p.) after nialamide 50 mg/kg i.p.; read-out: ED50 (inhibition of 5HTP-induced head twitches)
Experimental: as §1
Compound #6 was evaluated for inhibition of head twitches produced in mice by administration of L-5-hydroxytryptophan (5HTP, 10 mg/kg intraperitoneously) after nialamide treatment (50 mg/kg intraperitoneal, 22 hours before the test). The head twitches were counted for 45 min. starting 15 min. after 5HTP administration. [E. Friedmann et al.; Europ. J. Pharmocol., 89, 69-76 (1983)].

[6] = tested on: rat frontal cortex; assay: Chronic focal epilepsy assay (cobalt powder on rat frontal cortex, EEG spike activity); format: in vivo; settings: ip, intraperitoneal, cobalt-induced spikes, read-out: threshold dose for inhibiting spike activities
Experimental: In a model of chronic focal epilepsy where cobalt powder is placed on rat frontal cortex, the animals develop, after several days, chronic expression of afterdischarge-like spike activity which can be recorded by EEG. Compound #6 has, when administered by intraperitoneal route, a threshold dose of 200 mg/kg for inhibiting these spike activities with the effect being observed from 30 to 90 minutes.

[7] = tested on: mice; assay: Inhibition of convulsions induced by supramaximal electroconvulsive shocks (ECS) in mice; format: in vivo, male Swiss albino mice; settings: Mus musculus, po; ECS 48 mA, 50 Hz, 0.2 sec, corneal electrodes; compound orally; read-out: Inhibition of Convulsions by Cpd. #6 (ED50), ECS
Experimental: as §1, with “Except as otherwise specified, the animals used in the in vivo tests were male Swiss albino mice weight 22 to 33 g [CDl, Charles River, France], housed in groups of 10 on a 12-hour dark-light cycle for at least one week before use and fasted overnight prior to testing.” left out
(§4) Compounds of Formula I were evaluated as inhibitors of convulsions and death induced by different convulsant agents: 3-mercaptopropionic acid (3-MPA; 120 mg/kg subcutaneously), bicuculline (BIC, 0.6 mg/kg intravenously), pentylenetetrazole (PTZ, 55 mg/kg intravenously) and supramaximal electroconvulsive shocks (ECS evoked by a current intensity of 48 mA, 50 Hz. 0.2 sec duration, 10 msec square pulse, corneal electrodes) [W. van Dorsser, D. Barris, A. Cordi and J. Roba, Arch. […]
as §3

[8] = tested on: mice; assay: Inhibition of pentylenetetrazole (PTZ)-induced convulsions in mice; format: in vivo, male Swiss albino mice; settings: Mus musculus, po; convulsant PTZ 55 mg/kg intravenously; compound orally; read-out: Inhibition of Convulsions by Cpd. #6 (ED50), PZT
Experimental: as §1, with “Except as otherwise specified, the animals used in the in vivo tests were male Swiss albino mice weight 22 to 33 g [CDl, Charles River, France], housed in groups of 10 on a 12-hour dark-light cycle for at least one week before use and fasted overnight prior to testing.” left out
as §4, §3

Row | SMILES | Behavior (dose at which the behavior is observed : behavior) [1] | responders at 30 mg/kg [2] [%] | Number of Mice Protected From Convulsions Induced by 3-MPA at 100 mg/kg, 30 min interval [3] [mice] | LD50 at 360 h [4] [mg/kg] | Number of Mice Protected From Convulsions Induced by 3-MPA at 100 mg/kg, 2 hr interval [3] [mice] | ED50 [5] [mg/kg] | minimal effective dose [6] [mg/kg] | ED50 ([3]; Mus musculus, po, convulsant 3-MPA 120 mg/kg subcutaneously, compound orally, read-out: Inhibition of Convulsions by Cpd. #6 (ED50), 3-MPA) [mg/kg] | ED50 [7] [mg/kg] | ED50 [8] [mg/kg]
1 | CCCCCCCCNC(=O)NC(=O)CNCCCCC [Compound 1, 1-octyl-3-(2-pentylamino-1-oxoethyl)urea] | 1000:0 mg/kg | 35 | 0 | > 1000 | – | – | – | – | – | –
2 | CCCCCNCC(=O)NC(=O)NCCc1ccccc1 [Compound 2, 1-(2-phenylethyl)-3-(2-pentylamino-1-oxoethyl)urea] | 1000:SED, RPI, RRE | 25 | 3 | > 1000 | – | – | – | – | – | –
3 | CCCCCCCCNC(=O)NC(=O)CNCCc1ccccc1 [Compound 3, 1-octyl-3-[2-(2-phenylethyl)amino-1-oxoethyl]urea] | 3000:SED, ATN | 55 | 6 | > 3000 | 3 | – | – | – | – | –
4 | CCCCCCCCNCC(=O)NC(=O)NCCCCCCCC [Compound 4, 1-octyl-3-(2-octylamino-1-oxoethyl)urea] | 3000:0 mg/kg | 35 | 4 | > 3000 | 3 | – | – | – | – | –
5 | O=C(CNCCc1ccccc1)NC(=O)NCCc1ccccc1 [Compound 5, 1-(2-phenylethyl)-3-[2-(2-phenylethyl)amino-1-oxoethyl]urea] | 3000:TOX, DEP | 45 | 6 | 1750 | 1 | – | – | – | – | –
6 | CCCCCCCCNCC(=O)NC(=O)NCCc1ccccc1 [Compound 6, 1-(2-phenylethyl)-3-(2-octylamino-1-oxoethyl)urea] | 1000:SED, ATN | 35 | 9 | > 3000 | 9 | 200 | 200 | 16 | 60 | 56
7 | CCCCCNC(=O)NC(=O)CNCCc1ccccc1 [Compound 7, 1-pentyl-3-[2-(2-phenylethyl)amino-1-oxoethyl]urea] | 1000:SED | 25 | 1 | > 3000 | – | – | – | – | – | –
8 | CCCCCNCC(=O)NC(=O)NCCCCC [Compound 8, 1-pentyl-3-(2-pentylamino-1-oxoethyl)urea] | – | 40 | 0 | > 3000 | – | – | – | – | – | –
9 | CCCCCCCCNCC(=O)NC(=O)NCCCCC [Compound 9, 1-pentyl-3-(2-octylamino-1-oxoethyl)urea] | 1000:0 mg/kg | 35 | 7 | > 1000 | 4 | – | – | – | – | –
10 | CNC(=O)NC(=O)CNC(c1ccccc1)c1ccccc1 [Compound 10, 1-methyl-3-(2-diphenylmethylamino-1-oxoethyl)urea] | – | – | 1 | – | – | – | – | – | – | –
11 | O=C(CNC(c1ccccc1)c1ccccc1)NC(=O)NCCc1ccccc1 [Compound 11, 1-(2-phenylethyl)-3-(2-diphenylmethylamino-1-oxoethyl)urea] | – | – | 0 | – | – | – | – | – | – | –
